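1) Cells in 96-well plates. 2) Compound, 48 h, 5 concentrations. 3) Linear interpolation between surrounding doses. 4) Unreached endpoint = highest concentration. GI50 is the concentration that inhibits growth by half.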 The source made the active and inactive calls. Cut-off read from the data, not from the text of the source: active = GI50 up to about 1.1 µM and inactive = higher.
Key:
Experiment in all cases: NCI anticancer screen, dose series, 48 h
SK-MEL-2 = tested on: SK-MEL-2
SNB-75 = tested on: SNB-75
HCT-116 = tested on: HCT-116
Hs-578T = tested on: Hs-578T
NCI/ADR-RES = tested on: NCI/ADR-RES
SW-620 = tested on: SW-620
DLD-1 = tested on: DLD-1
MCF7 = tested on: MCF7
ACHN = tested on: ACHN
U-251 = tested on: U-251
K562 = tested on: K562
MOLT-4 = tested on: MOLT-4
EKVX = tested on: EKVX
OVCAR-5 = tested on: OVCAR-5
DMS-114 = tested on: DMS-114
NCI-H226 = tested on: NCI-H226
SN12C = tested on: SN12C
LOX IMVI = tested on: LOX IMVI
MDA-N = tested on: MDA-N
CCRF-CEM = tested on: CCRF-CEM

For `CC1=C(N2CC2)C(=O)c2nc3n(c2C1=O)CCC3OC(=O)CCl` (configuration not stated), the GI50 (SK-MEL-2) was 0.0478 µM (active), the GI50 (SNB-75) was 0.0221 µM (active) and the GI50 (HCT-116) was 0.0418 µM (active). The GI50 (Hs-578T) was 0.0279 µM (active), the GI50 (NCI/ADR-RES) was 0.0249 µM (active) and the GI50 (SW-620) was 0.0316 µM (active). For the same compound, the GI50 (DLD-1) was 0.101 µM (active), the GI50 (MCF7) was < 0.01 µM (active) and the GI50 (ACHN) was 0.047 µM (active). The GI50 (U-251) was 0.0252 µM (active), the GI50 (K562) was 0.0618 µM (active) and the GI50 (MOLT-4) was 0.753 µM (active). The GI50 (EKVX) was 0.217 µM (active), the GI50 (OVCAR-5) was 0.0692 µM (active) and the GI50 (DMS-114) was 0.171 µM (active). The GI50 (NCI-H226) was 0.064 µM (active), the GI50 (SN12C) was 0.0573 µM (active) and the GI50 (LOX IMVI) was 0.0354 µM (active). The GI50 (MDA-N) was 0.0222 µM (active) and the GI50 (CCRF-CEM) was 0.181 µM (active).

For `CCCCC(=O)OCC(=O)[C@]1(O)Cc2c(O)c3c(c(O)c2[C@@H](OC2CC(NC(=O)C(F)(F)F)C(O)C(C)O2)C1)C(=O)c1c(OC)cccc1C3=O` (some centres not stated), the GI50 (SK-MEL-2) was 0.962 µM (active), the GI50 (SNB-75) was 1.02 µM (active) and the GI50 (HCT-116) was 0.294 µM (active). For the same compound, the GI50 (Hs-578T) was 1.73 µM (inactive), the GI50 (SW-620) was 0.261 µM (active) and the GI50 (DLD-1) was 0.538 µM (active). The GI50 (ACHN) was 0.406 µM (active), the GI50 (U-251) was 0.221 µM (active) and the GI50 (K562) was 0.337 µM (active). For the same compound, the GI50 (MOLT-4) was 0.0228 µM (active), the GI50 (EKVX) was 2.43 µM (inactive) and the GI50 (OVCAR-5) was 1.52 µM (inactive). For the same compound, the GI50 (DMS-114) was 0.268 µM (active), the GI50 (NCI-H226) was 0.0401 µM (active) and the GI50 (SN12C) was 0.29 µM (active). For the same compound, the GI50 (LOX IMVI) was 0.163 µM (active), the GI50 (MDA-N) was 1.15 µM (inactive) and the GI50 (CCRF-CEM) was 0.135 µM (active).

For `CCOc1ccc(NCc2cc(OC)c(OC)c(OC)c2)cc1`, the GI50 (SNB-75) was 1.96 µM (inactive), the GI50 (HCT-116) was 0.533 µM (active) and the GI50 (Hs-578T) was 1.11 µM (active). The GI50 (NCI/ADR-RES) was 0.359 µM (active), the GI50 (SW-620) was 0.334 µM (active) and the GI50 (DLD-1) was 1.11 µM (active). For the same compound, the GI50 (MCF7) was 0.455 µM (active), the GI50 (ACHN) was 6.15 µM (inactive) and the GI50 (U-251) was 0.536 µM (active). For the same compound, the GI50 (K562) was 0.269 µM (active), the GI50 (MOLT-4) was 0.822 µM (active) and the GI50 (EKVX) was 17.5 µM (inactive). The GI50 (DMS-114) was 0.287 µM (active), the GI50 (NCI-H226) was 11.3 µM (inactive) and the GI50 (LOX IMVI) was 0.918 µM (active).

In the case of `CO[C@H]1Nc2c(ccc(C)c2O)C(=O)N2C=C(/C=C/C(N)=O)C[C@@H]12` [ANTHRAMYCIN METHYL ETHER], the GI50 (SK-MEL-2) is reported as 0.0151 µM (active), the GI50 (SNB-75) is reported as 0.0228 µM (active) and the GI50 (HCT-116) is reported as 0.0382 µM (active). For the same compound, the GI50 (Hs-578T) was 0.0103 µM (active), the GI50 (NCI/ADR-RES) was 0.0315 µM (active) and the GI50 (SW-620) was 0.0308 µM (active). The GI50 (DLD-1) was 0.118 µM (active), the GI50 (MCF7) was 0.0389 µM (active) and the GI50 (ACHN) was 0.0181 µM (active). For the same compound, the GI50 (U-251) was 0.0162 µM (active), the GI50 (K562) was 0.0396 µM (active) and the GI50 (MOLT-4) was 0.0276 µM (active). The GI50 (EKVX) was 0.0462 µM (active), the GI50 (OVCAR-5) was 0.0541 µM (active) and the GI50 (DMS-114) was 0.0213 µM (active). For the same compound, the GI50 (NCI-H226) was 0.128 µM (active), the GI50 (SN12C) was 0.0221 µM (active) and the GI50 (LOX IMVI) was 0.0161 µM (active). For the same compound, the GI50 (MDA-N) was 0.0133 µM (active) and the GI50 (CCRF-CEM) was 0.0193 µM (active).

For `COc1cc(OC)c2c(c1)C(=O)C(CC(C)O)=CC2=O` (configuration not stated), the GI50 (SK-MEL-2) was 19.7 µM (inactive), the GI50 (SNB-75) was 25.8 µM (inactive) and the GI50 (HCT-116) was 12.5 µM (inactive). The GI50 (SW-620) was 17.8 µM (inactive), the GI50 (DLD-1) was 13.7 µM (inactive) and the GI50 (ACHN) was 16.6 µM (inactive). For the same compound, the GI50 (U-251) was 17.9 µM (inactive), the GI50 (K562) was 14.9 µM (inactive) and the GI50 (MOLT-4) was 3.89 µM (inactive). The GI50 (EKVX) was 12 µM (inactive), the GI50 (OVCAR-5) was 18.4 µM (inactive) and the GI50 (DMS-114) was 3.08 µM (inactive). The GI50 (NCI-H226) was 20.8 µM (inactive), the GI50 (SN12C) was 18.7 µM (inactive) and the GI50 (LOX IMVI) was 5.97 µM (inactive). For the same compound, the GI50 (CCRF-CEM) was 4.22 µM (inactive).

For `COc1c(CC(C)=O)ccc2c1C(=O)c1ccc(C=O)c(OC(C)=O)c1C2=O`, the GI50 (SK-MEL-2) was 15.2 µM (inactive), the GI50 (SNB-75) was 20.5 µM (inactive) and the GI50 (HCT-116) was 11.9 µM (inactive). For the same compound, the GI50 (SW-620) was 12.6 µM (inactive), the GI50 (DLD-1) was 3.62 µM (inactive) and the GI50 (ACHN) was 15.1 µM (inactive). For the same compound, the GI50 (U-251) was 13.9 µM (inactive), the GI50 (K562) was 11.6 µM (inactive) and the GI50 (MOLT-4) was 11.4 µM (inactive). For the same compound, the GI50 (EKVX) was 23.3 µM (inactive), the GI50 (OVCAR-5) was 15.3 µM (inactive) and the GI50 (DMS-114) was 12.8 µM (inactive). The GI50 (NCI-H226) was 15.7 µM (inactive), the GI50 (SN12C) was 12.9 µM (inactive) and the GI50 (LOX IMVI) was 14.3 µM (inactive). The GI50 (CCRF-CEM) was 3.23 µM (inactive).

In the case of `CCOc1ccccc1NC(=O)C(C#N)C1=C(Cl)C(=O)c2ccccc2C1=O` (configuration not stated), the GI50 (SK-MEL-2) is reported as 1.55 µM (inactive), the GI50 (SNB-75) is reported as 2.33 µM (inactive) and the GI50 (HCT-116) is reported as 1.95 µM (inactive). The GI50 (SW-620) was 1.78 µM (inactive), the GI50 (DLD-1) was 1.85 µM (inactive) and the GI50 (ACHN) was 1.79 µM (inactive). The GI50 (U-251) was 1.71 µM (inactive), the GI50 (K562) was 1.58 µM (inactive) and the GI50 (MOLT-4) was 1.17 µM (inactive). The GI50 (EKVX) was 1.5 µM (inactive), the GI50 (OVCAR-5) was 2.14 µM (inactive) and the GI50 (DMS-114) was 0.743 µM (active). The GI50 (NCI-H226) was 2.13 µM (inactive), the GI50 (SN12C) was 1.79 µM (inactive) and the GI50 (LOX IMVI) was 0.74 µM (active). For the same compound, the GI50 (CCRF-CEM) was 0.867 µM (active).

In the case of `O=C1c2nn(-c3ccccc3)nc2C(c2ccccc2)N1c1ccccc1` (configuration not stated), the GI50 (SK-MEL-2) is reported as > 100 µM (inactive), the GI50 (SNB-75) is reported as 25 µM (inactive) and the GI50 (HCT-116) is reported as > 100 µM (inactive). For the same compound, the GI50 (SW-620) was > 100 µM (inactive), the GI50 (DLD-1) was > 100 µM (inactive) and the GI50 (ACHN) was > 100 µM (inactive). The GI50 (U-251) was 95.3 µM (inactive), the GI50 (K562) was > 100 µM (inactive) and the GI50 (MOLT-4) was > 100 µM (inactive). For the same compound, the GI50 (EKVX) was > 100 µM (inactive), the GI50 (OVCAR-5) was > 100 µM (inactive) and the GI50 (DMS-114) was > 100 µM (inactive). For the same compound, the GI50 (NCI-H226) was 34 µM (inactive), the GI50 (SN12C) was > 100 µM (inactive) and the GI50 (LOX IMVI) was > 100 µM (inactive). For the same compound, the GI50 (CCRF-CEM) was > 100 µM (inactive).
